Test results published in US10933111B2, “Treating dry eye disorders” (Boston Biotechnology US CORP, priority 2019, dated 2021).

System: patients with dry eye disorder and other eye symptoms
Assay: Clinical usage of deacidified coconut oil for treating eye diseases or disorders (three patients)
Type: in vivo, human
Conditions: before deacidified coconut oil
Procedure: The deacidified coconut oil was initially developed for treating the dry eye disorder. As the research continued, it was determined that the deacidified coconut oil can also be used to treat asthenopia, impaired vision, blurred vision, photophobia, astigmatism, and blepharitis. As shown in the following cases, the deacidified coconut oil was successfully administered to three patients with positive outcomes.
[…] […] […] […] […] In 2013-2014, the patient developed additional eye symptoms including astigmatism, blepharitis, anxiety and body weight loss (e.g., about 10 kilograms). In 2015, the patient used the deacidified coconut oil as described herein as eye drops, placed the thermal pad as described herein on the eyes, and took herb composition as described herein. […] In 2019, the symptoms of dry eye disorder including pain, dryness, redness, foreign matter sensation and insomnia were gone. In addition, symptoms such as repetitive visual fatigue, decreased vision, blurred vision, photophobia, sensitivity to wind, astigmatism, and eyelid inflammation disappeared. The patient's overall vision condition improved relative to that in 2015. The eyeglass prescription for both eyes decreased by 1.50-2.00.
The second patient, person. […]

Recombinant Bovine Basic Fibroblast Growth Factor Eye Drops: Recombinant Bovine Basic Fibroblast Growth Factor Eye Drops
effect of earlier treatment, second patient: No significant improvement was observed
